From patent publication US20120041025A1, “Dihydrolipoic Acid Derivatives Comprising Nitric Oxide and Therapeutic Uses Thereof” (priority 2009, published 2012) come the findings set out here.

Data set [1] has as its system low-density lipoprotein (LDL). Kind of data set: Inhibition of low-density lipoprotein oxidation, spectral analysis at O.D. 234. The class given is biochemical. The conditions noted are these: 10, 25, and 50 μM NO-DHLA in ethyl alcohol. As to the method: To determine whether the dinitroso-derivative of dihydrolipoic acid (6,8-bis[(oxidoazanylidyne)-λ^4-sulfanyl]octanoic acid or “NO-DHLA”) was capable of inhibiting low-density lipoprotein (LDL) oxidation, LDLs were incubated in ethyl alcohol alone or with NO-DHLA. A spectral analysis of these solutions was then performed at an O.D. of 234, as absorbance at that portion of the spectrum is indicative of the formation of the oxidized fatty acid component of LDL.

Data set [2] relates to bovine serum albumin (BSA). As to the kind of experiment: Nitration of bovine serum albumin by NO-DHLA, western blot with anti-nitrotyrosine antibodies (NO donation). It is filed as biochemical. Conditions: BSA 25 mg/ml incubated with NO-DHLA (6 to 15 μl) for 1 hr; untreated albumin had no detectable nitrotyrosine. As to the method: To determine the ability of the dinitroso-derivative of DHLA (6,8-bis[(oxidoazanylidyne)-λ^4-sulfanyl]octanoic acid or “NO-DHLA”) to donate nitric oxide (NO), bovine serum albumin (BSA) was first prepared in water at 25 mg/ml. In 100 μl of alcohol, increasing concentrations of BSA (15 to 30 μl) were then mixed with increasing concentrations of the NO-DHLA (0 to 15 μl) and incubated for 1 hr. Table 1 represents the incubation:
At the end of the incubation, samples were the separated by SDS-PAGE electrophoresis with along with markers of molecular weight. At the end of the electrophoresis, the blot was subsequently transferred on to a nitrocellulose membrane and western blotting was performed using anti-nitrotyrosine antibodies at a 1:1000 dilution (Oxford Biomedical Research, Rochester Hills, Mich.). Non-specific sites on the nitrocellulose were blocked with milk protein for 16 h at 4° C. and then overlaid with a polyclonal anti-nitrotyrosine rabbit antibody. Peroxidase conjugated anti-rabbit IgG was used as secondary antibody. […]
Background: Immunoblotting shows a protein as a band on a membrane.

The nature of data set [3]: Storage stability of DHLA-NO solution (color / absorbance at OD 545 nm). The class given is physicochemical. As to the method: Furthermore, it was also observed that other reduced thiols (cysteine, glutathione), which were used as controls, generated similar S-nitroso thiol compounds. NO generated from the decomposition of other NO donors also generated nitroso-DHLA when incubated with DHLA. […] However, DHLA-NO stored at −80° C. retained its color up for up to 3 months without any loss of absorbance at OD 545 nm.

On to `O=NSCCC(CCCCC(=O)O)SN=O` (centres unmarked) [NO-DHLA, 6,8-bis[(oxidoazanylidyne)-λ^4-sulfanyl]octanoic acid], for which the “oxidation of LDL (O.D. at 234 over time)” value in data set [1] is reported as “effectively prevented or significantly reduced the oxidation of LDL”. Moreover, the “nitrotyrosine formation on BSA (reactivity with anti-nitrotyrosine antibody)” value in data set [2] is “intense reactivity with the antibody”. In addition, the “stability of solution stored at room temperature” value in data set [3] (solution stored at room temperature, color) was “decomposed, losing color within hours”. Moreover, in data set [3] (stored at −20° C.), the “stability without any loss of absorbance at OD 545 nm” value was “stable at −20 °C for at least one month”. Besides, the “time color retained without any loss of absorbance at OD 545 nm” value in data set [3] (stored at −80° C.) is given as “up to 3 months”.
